Where a SMILES comes first, the peptide text is derived from it.
Experiments:
[1] = tested on: PBMC cultures; conditions: 72 hr, 1 mM, FIG. 15
[2] = tested on: HIV-1 clade B (Strain SF162) and clade C (Strain 97ZA009); experiment: Inhibition of HIV replication (neutralization) in PBMCs, p24 immunoassay; type: cell-based; conditions: 10 nM, FIGS. 13A-B
Description: The ability of the peptides to inhibit replication of HIV, both alone and in combination with antibodies, was tested as follows. Approximately 3 million cells of frozen human PBMCs, obtained from the California Blood Bank system, were thawed at 37° C. and transferred to a 50 mL conical tube where 8 mL of wash medium were added slowly. Then an additional 8 mL of wash medium were added and swirled to mix. The cells were then centrifuged at 330 g for 10 min, the supernatant was removed and the pellet was resuspended in 10 mL wash medium and centrifuged as above. The washed cells were then resuspended in RPMI-B medium containing 10% FBS, phytohemagglutin was added to 5 μg/mL, and cells were incubated at 37° C. for 24 hr in humidified 5% CO2. Cells were washed, suspended to about 6 million cells per mL, and 50 μL, (about 250,000 viable cells) were added to each test well. Then 100 ↑L of the test peptide were added at a concentration sufficient to provide the desired final concentration, followed by 100 μL of virus suspension (100 median tissue culture infective doses (TCID50s)). The assay plate was incubated 3 days at 37° C., then washed 3 times to remove unbound virus, and the cells were again suspended to 250 μL of medium. After an additional 24 hr of incubation, cells were lysed with Triton X-100 and each sample was assayed by an enzyme-linked immunoassay for virus protein p24 to quantify neutralization of virus. In another set of samples, antibody preparations were also added at a desired concentration (i.e., in addition to peptide).
This peptide construct was assayed for activity with two strains of HIV, clade B (Strain SF162) and clade C (Strain 97ZA009), both of which were provided by the California Department of Public Health (Richmond, Calif.). HIV-1 clade B is the major strain in North America and HIV-1 clade C is the major strain in central and southern Africa, India and China. The peptide was assayed either alone (−) or in combination with serum from HIV-infected individuals (+), as outlined below in TABLE 3.
(SEQ ID NO:7). The short bars represent neutralization by peptide alone. The long bars represent neutralization when pooled serum from HIV-positive patients was added along with the peptide. The bars represent averages from two experiments, each performed in quadruplicate. In one set of experiments, each peptide was assayed at 10 nM for the ability to inhibit replication. In the absence of peptide, the antibody preparation (serum) provided only about 30% neutralization (inhibition), at the same dilution (data not shown).

[3] = tested on: PBMCs; experiment: Induction of cytokine release from PBMCs (membrane antibody array); type: cell-based, human; conditions: PBMC medium, 4 hr, 100 nM peptide; for Relative concentration of IL-21: IFN-γ printed in place of LPS
Description: To determine whether inhibition of HIV replication by the peptide may be the result of induction of release of cytokines, cultured PBMCs were treated with one peptide embodiment of the present invention and, after 4 hr incubation, the medium was collected and assayed for changes in the amounts of 40 different cytokines. […] Approximately 3 million cells of frozen human PBMCs were thawed at 37° C. and transferred to a 50 mL conical tube where 8 mL of wash medium were added slowly. Then an additional 8 mL of wash medium were added and swirled to mix. The cells were then centrifuged at 330 g for 10 min, the supernatant was removed and the pellet was resuspended in 10 mL wash medium and centrifuged as above. The washed cells were then resuspended in RPMI-1640 medium containing 10% FBS to about 6 million cells per mL and 100 μL of the suspension were added into each well of a 96-well microtiter plate and incubated overnight at 37° C. in humidified 5% CO2. After 24 hr the medium was replaced with 200 μL fresh RPMI-1640 medium containing 10% FBS and incubated at 37° C. in humidified 5% CO2 for 2 days. For the data shown in TABLE 4, the peptide aliquot was then added to samples in duplicate at a final concentration of 100 nM and incubated at 37° C. in humidified 5% CO2 for 4 hr. For other experiments (data not included), the incubation was continued for 24 hr. The medium was then removed and stored at −80° C. The samples were analyzed for production of cytokines One set of control cells was not treated with an experimental agent.
Culture medium was removed for assay of cytokine levels with methods developed by RayBiotech, Inc. (Norcross, Ga.). In this technology, membrane arrays of antibodies against cytokines were incubated with samples of media. After washing, the array was incubated with a cocktail of all antibodies tagged with biotin. The membrane was then washed free of unbound antibodies and incubated with streptavidin labeled with a fluorescent dye. After a final wash, the membrane arrays were read in a fluorescence detector.

[4] = tested on: macrophages in PBMC cultures; experiment: Phagocytosis of microspheres opsonized with anti-HIV antibodies; type: cell-based, human
Description: The ability of the peptide constructs to stimulate phagocytosis was assessed in two experiments. In the first experiment, a biotin-tagged peptide epitope of a surface protein of HIV-1 was bound to streptvidin on the surface of the beads. An antibody preparation that was raised against this epitope was then bound to the HIV peptide. The beads were then washed and presented to peripheral blood mononuclear cell (PBMC) cultures pretreated with peptides. […] In multiple control cultures, the number of beads within a macrophage-like cell ranged from 0 to 3. […] In the treated cultures, greater than 20 beads were counted in each phagocytic cell. After several subsequent and similar experiments were conducted, a phagocytic index was developed for the activity of macrophages to ingest microspheres opsonized with anti-HIV antibodies (TABLE 1).

[5] = tested on: peripheral blood mononuclear cells; experiment: Phagocytosis of opsonized microspheres by peptide-treated PBMCs (second experiment); type: cell-based, human; conditions: 50 nM peptide construct; interferon-gamma 100 ng/mL
Description: In a second experiment, streptavidin-coated microspheres, dyed with Dragon Green (0.97 μm diameter, Bangs Laboratories, Inc., Fishers, Ind.) were opsonized with rabbit anti-streptavidin serum (Sigma-Aldrich) and washed with phosphate buffered saline, pH 7.4 (PBS). Human PBMCs were cultured in microtiter plates in RPMI-1640 medium containing 10% fetal bovine serum (FBS) and 1:100 dilution of penicillin-streptomycin solution (Mediatech, Inc., Herndon, Va.) Cultures were washed to remove non-adherent cells, and fresh medium containing FBS, antibiotics, and 50 nM peptide was added to adherent cells for an additional 20 to 24 h. Microspheres were added at approximately a 10:1 ratio to total cells, and after an additional 30 to 60 min of incubation, a solution containing 2% formalin was added. […]
FIGS. 9A-I illustrate phagocytosis of opsonized microspheres by peptide-treated PBMCs. […] The experiment was quantified by counting the number of beads in the phagocytic cells (TABLE 2).
In order to establish that the bead-like material within the cells was indeed engulfed beads, fluorescence was examined. […] Cells were examined by both phase contrast microscopy (left panels) and fluorescence microscopy with blue excitation light (right panels). […]

[6] = tested on: lectins (HP, GS, WGA, DB, UEA1, SNA1, MAA, concanavalin A); experiment: Lectin binding, panel of lectins (valency and specificity); conditions: seven lectins, equal number of HPSLK sequences per well, FIG. 4
Text: Each assay used the same basic procedure.
FIG. 6 illustrates the specificity with which the quadravalent peptide constructs bind to different lectins.

Molecule	inhibitory activity when assayed alone [2]	level of inhibition with antibodies added [2]	Relative concentration of IL-12p40 [3] [arbitrary units]	Relative concentration of IL-15 [3] [arbitrary units]	Relative concentration of IL-16 [3] [arbitrary units]	Relative concentration of IL-17 [3] [arbitrary units]	Relative concentration of sTNF RII [3] [arbitrary units]	Relative concentration of IL-21 [3]	Phagocytosis Index [4]	Beads/cell (mean ± SD) [5]	other results
CC(C)C[C@H](NC(=O)[C@H](CO)NC(=O)[C@@H]1CCCN1C(=O)[C@@H](N)Cc1c[nH]cn1)C(=O)N[C@@H](CCCCN)C(=O)NCC(=O)NCC(=O)NCC(=O)N[C@@H](CO)C(=O)NCCCC[C@H](NC(=O)[C@H](CO)NC(=O)CNC(=O)CNC(=O)CNC(=O)[C@H](CCCCN)NC(=O)[C@H](CC(C)C)NC(=O)[C@H](CO)NC(=O)[C@@H]1CCCN1C(=O)[C@@H](N)Cc1c[nH]cn1)C(=O)NCCCC[C@H](NC(=O)[C@H](CCCCNC(=O)[C@H](CO)NC(=O)CNC(=O)CNC(=O)CNC(=O)[C@H](CCCCN)NC(=O)[C@H](CC(C)C)NC(=O)[C@H](CO)NC(=O)[C@@H]1CCCN1C(=O)[C@@H](N)Cc1c[nH]cn1)NC(=O)[C@H](CO)NC(=O)CNC(=O)CNC(=O)CNC(=O)[C@H](CCCCN)NC(=O)[C@H](CC(C)C)NC(=O)[C@H](CO)NC(=O)[C@@H]1CCCN1C(=O)[C@@H](N)Cc1c[nH]cn1)C(N)=O [HPSLK] (HELM PEPTIDE1{H.P.S.L.K.G.G.G.S.K.K.[am]}|PEPTIDE2{H.P.S.L.K.G.G.G.S.K}|PEPTIDE3{H.P.S.L.K.G.G.G.S}|PEPTIDE4{H.P.S.L.K.G.G.G.S}$PEPTIDE1,PEPTIDE4,10:R3-9:R2|PEPTIDE1,PEPTIDE2,11:R3-10:R2|PEPTIDE2,PEPTIDE3,10:R3-9:R2$$$V2.0)	–	–	–	–	–	–	–	–	–	–	viability of cells in PBMC cultures [1]: partially reduced viability
PSSNA: peptide construct containing four copies of the core sequence PSSNA	substantial inhibitory activity	enhanced by adding antibodies	28	153	12	21	21	130 arbitrary units	+++ (+++ = 15)	–	Relative concentration of IL-4 [3]: 60 arbitrary units; Relative concentration of IL-8 [3]: 702 arbitrary units; Relative concentration of IL-12p70 [3]: 69 arbitrary units; Relative concentration of TNF-α [3]: 123 arbitrary units
VGGGS: peptide construct containing four copies of the core sequence VGGGS	substantial inhibitory activity	enhanced by adding antibodies	51	130	10	24	26	–	+++ (+++ = 15)	–	Relative concentration of ICAM-1 [3]: 89 arbitrary units; Relative concentration of IL-1α [3]: 291 arbitrary units; Relative concentration of IL-2 [3]: 125 arbitrary units; Relative concentration of IP-10 [3]: 321 arbitrary units; Relative concentration of RANTES [3]: 213 arbitrary units; Relative concentration of TIMP-2 [3]: 205 arbitrary units; Relative concentration of TNF-β [3]: 111 arbitrary units
VSNQH: peptide construct containing four copies of an inactive core sequence VSNQH, negative control (VNSQH) [reference compound]	–	–	–	–	–	–	–	–	–	1.3 ± 1.8	–
single sequence: peptide with 1 arm containing the core sequence HPSLK	–	–	–	–	–	–	–	–	–	–	binding relative to the quadravalent peptide (set as 100%) [6]: much lesser extent
Interferon-gamma: interferon-gamma, positive control (protein, UniProt P01579 24-161, looked up) Interferon gamma: QDPYVKEAENLKKYFNAGHSDVADNGTLFLGILKNWKEESDRKIMQSQIVSFYFKLFKNFKDDQSIQKSVETIKEDMNVKFFNSNKKKRDDFEKLTNYSVTDLNVQRKAIHELIQVMAELSPAAKTGKRKRSQMLFRG	–	–	–	–	–	–	–	(IFN-γ: 100) arbitrary units	+++ (+++ = 15)	35.8 ± 12.6	–

Reference: patent US8496942B2, “Therapeutic peptides and uses thereof” (priority 2006, dated 2013)
